# From patent publication US12459922B2 (Gilead Sciences, Inc., priority 2022, dated 2025)
# Tested on: endogenous cellular STAT1 (phosphorylated at Tyr701) in NCI-H1373 cells
# Test: Phospho-STAT1 (Tyr701) LANCE Ultra TR-FRET Detection Assay
# Assay type: cell-based
# Settings: Homo sapiens, NCI-H1373, 48 h, phospho-STAT1 (Tyr701) induction, read-out: NH1373 pSTAT1 EC50
row,SMILES,EC50 [nM]
1,"CC[C@@H](CCCn1ccc2cc(-c3ncc(C(F)F)c(N)n3)c(F)cc2c1=O)Nc1cn[nH]c(=O)c1C(F)(F)F [Example 297, (S)-6-(4-amino-5-(difluoromethyl)pyrimidin-2-yl)-7-fluoro-2-(4-((6-oxo-5-(trifluoromethyl)-1,6-dihydropyridazin-4-yl)amino)hexyl)isoquinolin-1(2H)-one]",3.71
2,"C[C@@H](CCCn1ccc2cc(-c3nc(N4CCOCC4)c4sccc4n3)c(F)cc2c1=O)Nc1cn[nH]c(=O)c1C(F)(F)F [Example 298, (S)-7-fluoro-6-(4-morpholinothieno[3,2-d]pyrimidin-2-yl)-2-(4-((6-oxo-5-(trifluoromethyl)-1,6-dihydropyridazin-4-yl)amino)pentyl)isoquinolin-1(2H)-one]",32
3,"Cc1nc(-c2cc3ccn(CCC[C@H](C)Nc4cn[nH]c(=O)c4C(F)(F)F)c(=O)c3cc2F)nc(N)c1Cl [Example 319, (S)-6-(4-amino-5-chloro-6-methylpyrimidin-2-yl)-7-fluoro-2-(4-((6-oxo-5-(trifluoromethyl)-1,6-dihydropyridazin-4-yl)amino)pentyl)isoquinolin-1(2H)-one]",2.92
4,"CC[C@@H](CCCn1cnc2cc(-c3ncc(C(F)F)c(N)n3)c(F)cc2c1=O)Nc1cn[nH]c(=O)c1C(F)(F)F [Example 320, (S)-7-(4-amino-5-(difluoromethyl)pyrimidin-2-yl)-6-fluoro-3-(4-((6-oxo-5-(trifluoromethyl)-1,6-dihydropyridazin-4-yl)amino)hexyl)quinazolin-4(3H)-one]",31.2
5,"CC[C@@H](CCCn1cnc2cc(-c3ncc(C(F)(F)F)c(N)n3)c(F)cc2c1=O)Nc1cn[nH]c(=O)c1C(F)(F)F [Example 321, (S)-7-(4-amino-5-(trifluoromethyl)pyrimidin-2-yl)-6-fluoro-3-(4-((6-oxo-5-(trifluoromethyl)-1,6-dihydropyridazin-4-yl)amino)hexyl)quinazolin-4(3H)-one]",4.11
6,"C[C@@H](CCCn1ccc2cc(-c3ncc4cc(F)ccc4n3)c(F)cc2c1=O)Nc1cn[nH]c(=O)c1C(F)(F)F [Example 322, (S)-7-fluoro-6-(6-fluoroquinazolin-2-yl)-2-(4-((6-oxo-5-(trifluoromethyl)-1,6-dihydropyridazin-4-yl)amino)pentyl)isoquinolin-1(2H)-one]",5.64
7,"CC(C)c1cnc(-c2cc3ccn(CCC[C@H](C)Nc4cn[nH]c(=O)c4C(F)(F)F)c(=O)c3cc2F)nc1N [Example 325, (S)-6-(4-amino-5-isopropylpyrimidin-2-yl)-7-fluoro-2-(4-((6-oxo-5-(trifluoromethyl)-1,6-dihydropyridazin-4-yl)amino)pentyl)isoquinolin-1(2H)-one]",10.6
8,"C[C@@H](CCCn1ccc2cc(-c3cn4ccnc4c(N)n3)c(F)cc2c1=O)Nc1cn[nH]c(=O)c1C(F)(F)F [Example 332, (S)-6-(8-aminoimidazo[1,2-a]pyrazin-6-yl)-7-fluoro-2-(4-((6-oxo-5-(trifluoromethyl)-1,6-dihydropyridazin-4-yl)amino)pentyl)isoquinolin-1(2H)-one]",8.92
9,"C[C@@H](CCCn1ccc2cc(-c3ccc4ncsc4n3)c(F)cc2c1=O)Nc1cn[nH]c(=O)c1C(F)(F)F [Example 333, (S)-7-fluoro-2-(4-((6-oxo-5-(trifluoromethyl)-1,6-dihydropyridazin-4-yl)amino)pentyl)-6-(thiazolo[5,4-b]pyridin-5-yl)isoquinolin-1(2H)-one]",503
10,"C[C@@H](CCCn1ccc2cc(-c3nc4cnccn4n3)c(F)cc2c1=O)Nc1cn[nH]c(=O)c1C(F)(F)F [Example 334, (S)-6-([1,2,4]triazolo[1,5-a]pyrazin-2-yl)-7-fluoro-2-(4-((6-oxo-5-(trifluoromethyl)-1,6-dihydropyridazin-4-yl)amino)pentyl)isoquinolin-1(2H)-one]",24.1
11,"C[C@@H](CCCn1ccc2cc(-c3ncc(-c4ccccc4F)cn3)c(F)cc2c1=O)Nc1cn[nH]c(=O)c1C(F)(F)F [Example 336, (S)-7-fluoro-6-(5-(2-fluorophenyl)pyrimidin-2-yl)-2-(4-((6-oxo-5-(trifluoromethyl)-1,6-dihydropyridazin-4-yl)amino)pentyl)isoquinolin-1(2H)-one]",95.1
12,"C[C@@H](CCCn1cnc2cc(-c3cnc(C(F)(F)F)c(N)n3)c(F)cc2c1=O)Nc1cn[nH]c(=O)c1C(F)(F)F [Example 337, (S)-7-(6-amino-5-(trifluoromethyl)pyrazin-2-yl)-6-fluoro-3-(4-((6-oxo-5-(trifluoromethyl)-1,6-dihydropyridazin-4-yl)amino)pentyl)quinazolin-4(3H)-one]",36.6
13,"CC[C@@H](CCCn1cnc2cc(-c3ccc(C(F)F)cn3)c(F)cc2c1=O)Nc1cn[nH]c(=O)c1C(F)(F)F [Example 338, (S)-7-(5-(difluoromethyl)pyridin-2-yl)-6-fluoro-3-(4-((6-oxo-5-(trifluoromethyl)-1,6-dihydropyridazin-4-yl)amino)hexyl)quinazolin-4(3H)-one]",218

# Continued, values first:
row,EC50 [nM],SMILES
1,561,"Cc1cc(N)nc(-c2cc3ccn(CCC[C@H](C)Nc4cn[nH]c(=O)c4C(F)(F)F)c(=O)c3cc2F)n1 [Example 315, (S)-6-(4-amino-6-methylpyrimidin-2-yl)-7-fluoro-2-(4-((6-oxo-5-(trifluoromethyl)-1,6-dihydropyridazin-4-yl)amino)pentyl)isoquinolin-1(2H)-one]"
2,15.5,"C[C@@H](CCCn1ccc2cc(-c3cnc(C(F)(F)F)c(N)n3)c(F)cc2c1=O)Nc1cn[nH]c(=O)c1C(F)(F)F [Example 316, (S)-6-(6-amino-5-(trifluoromethyl)pyrazin-2-yl)-7-fluoro-2-(4-((6-oxo-5-(trifluoromethyl)-1,6-dihydropyridazin-4-yl)amino)pentyl)isoquinolin-1(2H)-one]"
3,45.1,"C[C@@H](CCCn1ccc2cc(-c3ncc(C(F)(F)F)c(N4CCS(=O)(=O)C4)n3)c(F)cc2c1=O)Nc1cn[nH]c(=O)c1C(F)(F)F [Example 317, (S)-6-(4-(1,1-dioxidothiazolidin-3-yl)-5-(trifluoromethyl)pyrimidin-2-yl)-7-fluoro-2-(4-((6-oxo-5-(trifluoromethyl)-1,6-dihydropyridazin-4-yl)amino)pentyl)isoquinolin-1(2H)-one]"
4,28.6,"C[C@@H]1C[C@H](C)N1c1nc(-c2cc3ccn(CCC[C@H](C)Nc4cn[nH]c(=O)c4C(F)(F)F)c(=O)c3cc2F)ncc1C(F)(F)F [Example 318, 6-(4-((2R,4S)-2,4-dimethylazetidin-1-yl)-5-(trifluoromethyl)pyrimidin-2-yl)-7-fluoro-2-((S)-4-((6-oxo-5-(trifluoromethyl)-1,6-dihydropyridazin-4-yl)amino)pentyl)isoquinolin-1(2H)-one]"
5,260,"C[C@@H](CCCn1ccc2cc(-c3nc(C(F)(F)F)co3)c(F)cc2c1=O)Nc1cn[nH]c(=O)c1C(F)(F)F [Example 323, (S)-7-fluoro-2-(4-((6-oxo-5-(trifluoromethyl)-1,6-dihydropyridazin-4-yl)amino)pentyl)-6-(4-(trifluoromethyl)oxazol-2-yl)isoquinolin-1(2H)-one]"
6,4.65,"C[C@@H](CCCn1ccc2cc(-c3cnc(C(F)F)c(N)n3)c(F)cc2c1=O)Nc1cn[nH]c(=O)c1C(F)(F)F [Example 324, (S)-6-(6-amino-5-(difluoromethyl)pyrazin-2-yl)-7-fluoro-2-(4-((6-oxo-5-(trifluoromethyl)-1,6-dihydropyridazin-4-yl)amino)pentyl)isoquinolin-1(2H)-one]"
7,113,"C[C@@H](CCCn1ccc2cc(-c3ncc(C(F)(F)F)cc3Cl)c(F)cc2c1=O)Nc1cn[nH]c(=O)c1C(F)(F)F [Example 326, (S)-6-(3-chloro-5-(trifluoromethyl)pyridin-2-yl)-7-fluoro-2-(4-((6-oxo-5-(trifluoromethyl)-1,6-dihydropyridazin-4-yl)amino)pentyl)isoquinolin-1(2H)-one]"
8,3.05,"Cc1nc(-c2cc3ccn(CCC[C@H](C)Nc4cn[nH]c(=O)c4C(F)(F)F)c(=O)c3cc2F)nc(N)c1C(F)(F)F [Example 327, (S)-6-(4-amino-6-methyl-5-(trifluoromethyl)pyrimidin-2-yl)-7-fluoro-2-(4-((6-oxo-5-(trifluoromethyl)-1,6-dihydropyridazin-4-yl)amino)pentyl)isoquinolin-1(2H)-one]"
9,78.6,"C[C@@H](CCCn1ccc2cc(-c3ncc(C(F)(F)F)cc3N)c(F)cc2c1=O)Nc1cn[nH]c(=O)c1C(F)(F)F [Example 328, (S)-6-(3-amino-5-(trifluoromethyl)pyridin-2-yl)-7-fluoro-2-(4-((6-oxo-5-(trifluoromethyl)-1,6-dihydropyridazin-4-yl)amino)pentyl)isoquinolin-1(2H)-one]"
10,97.7,"C[C@@H](CCCn1ccc2cc(-c3cnc(C(F)F)cn3)c(F)cc2c1=O)Nc1cn[nH]c(=O)c1C(F)(F)F [Example 329, (S)-6-(5-(difluoromethyl)pyrazin-2-yl)-7-fluoro-2-(4-((6-oxo-5-(trifluoromethyl)-1,6-dihydropyridazin-4-yl)amino)pentyl)isoquinolin-1(2H)-one]"
11,1210,"C[C@@H](CCCn1ccc2cc(-c3ccc(F)c(C(F)F)n3)c(F)cc2c1=O)Nc1cn[nH]c(=O)c1C(F)(F)F [Example 330, (S)-6-(6-(difluoromethyl)-5-fluoropyridin-2-yl)-7-fluoro-2-(4-((6-oxo-5-(trifluoromethyl)-1,6-dihydropyridazin-4-yl)amino)pentyl)isoquinolin-1(2H)-one]"
12,78.1,"COc1cc(-c2cc3ccn(CCC[C@H](C)Nc4cn[nH]c(=O)c4C(F)(F)F)c(=O)c3cc2F)ncc1C(F)(F)F [Example 331, (S)-7-fluoro-6-(4-methoxy-5-(trifluoromethyl)pyridin-2-yl)-2-(4-((6-oxo-5-(trifluoromethyl)-1,6-dihydropyridazin-4-yl)amino)pentyl)isoquinolin-1(2H)-one]"
13,5.57,"C[C@@H](CCCn1ccc2cc(-c3nc4cc(F)ccn4n3)c(F)cc2c1=O)Nc1cn[nH]c(=O)c1C(F)(F)F [Example 335, (S)-7-fluoro-6-(7-fluoro-[1,2,4]triazolo[1,5-a]pyridin-2-yl)-2-(4-((6-oxo-5-(trifluoromethyl)-1,6-dihydropyridazin-4-yl)amino)pentyl)isoquinolin-1(2H)-one]"
